# Source: ChEMBL document CHEMBL5241104, “Reactive metabolites of the anticonvulsant drugs and approaches to minimize the adverse drug reaction” (Eur J Med Chem, 2021)
# Key:
# [1] = system: Mus musculus; assay: Anticonvulsant activity in CD-1 mouse assessed as protection against 6-Hz Psychomotor induced seizure at ip administration; type: functional
# [2] = species on record: Rattus norvegicus; assay: Inhibition of sodium uptake in rat cerebral cortical synaptosomes at 300 uM incubated for 30 mins by scintillation counting analysis; type: functional; conditions: Cerebral cortex, Synaptosome
# [3] = Protective index, ratio of TD50 for toxicity in Wistar rat assessed as median toxicity dose at po administration by rotorod test to ED50 for anticonvulsant activity in Wistar rat assessed as protection against maximal electroshock induced seizure at po administration; type: organism-based; conditions: in vivo, read-out: Ratio TD50/ED50
# [4] = system: Rattus norvegicus; assay: Anticonvulsant activity in Wistar rat assessed as protection against maximal electroshock induced seizure at po administration; type: functional
# [5] = species on record: Rattus norvegicus; assay: Inhibition of sodium uptake in rat cerebral cortical synaptosomes at 100 uM incubated for 30 mins by scintillation counting analysis; type: functional; conditions: Cerebral cortex, Synaptosome
# [6] = species on record: Rattus norvegicus; assay: Inhibition of sodium uptake in rat cerebral cortical synaptosomes at 30 uM incubated for 30 mins by scintillation counting analysis; type: functional; conditions: Cerebral cortex, Synaptosome
# [7] = Displacement of 3[H]BTX from rat cerebral cortical synaptosomes voltage-sensitive sodium channel incubated for 1.5 hrs by scintillation counting analysis; type: subcellular, Cerebral cortex, Synaptosome
# [8] = system: Rattus norvegicus; assay: Anticonvulsant activity in Wistar rat assessed as protection against maximal electroshock induced seizure by measuring median effective dose at po administration; type: functional
# [9] = system: Mus musculus; assay: Anticonvulsant activity in Albino mouse assessed as protection against Sc-PTZ induced seizure at ip administration for 30 mins; type: functional; conditions: 0.5 h
# [10] = system: Mus musculus; assay: Anticonvulsant activity against 3-MP induced Swiss mouse seizure model assessed as inhibition of tonic seizures at 50 mg/kg,ip administration for 30 mins; type: functional; conditions: 0.5 h
# [11] = system: Mus musculus; assay: Anticonvulsant activity against bicuculline induced Swiss mouse seizure model assessed as inhibition of tonic seizures at 50 mg/kg,ip administration for 30 mins; type: functional; conditions: 0.5 h
# [12] = system: Mus musculus; assay: Anticonvulsant activity against bicuculline induced Swiss mouse seizure model assessed as inhibition of clonic seizures at 50 mg/kg,ip administration for 30 mins; type: functional; conditions: 0.5 h
# [13] = system: Mus musculus; assay: Anticonvulsant activity in Swiss mouse assessed as protection against Sc-PTZ induced seizure at ip administration; type: functional
# [14] = system: Mus musculus; assay: Anticonvulsant activity against 3-MP induced Swiss mouse seizure model assessed as inhibition of clonic seizures at 50 mg/kg,ip administration for 30 mins; type: functional; conditions: 0.5 h
# [15] = Toxicity in bicuculline induced Swiss mouse seizure model assessed as death at 50 mg/kg,ip administration for 30 mins; type: organism-based; conditions: in vivo, read-out: Activity
# [16] = Toxicity in 3-MP induced Swiss mouse seizure model assessed as death at 50 mg/kg,ip administration for 30 mins; type: organism-based; conditions: in vivo, read-out: Activity
# [17] = Displacement of 3[H]BTX from rat brain membrane voltage-sensitive sodium channel incubated for 1.5 hrs by scintillation counting analysis; type: cell membranes
# [18] = Toxicity in CF-1 mouse assessed as median toxic dose at ip administrated upto 4 hrs; type: organism-based; conditions: in vivo
# [19] = Protective index, ratio of TD50 for toxicity in CF-1 mouse assessed as median toxicity dose at ip administration upto 4 hrs by rotorod test to ED50 for anticonvulsant activity in CF-1 mouse assessed as protection against maximal electroshock induced seizure at ip administration upto 4 hrs; type: organism-based; conditions: in vivo, read-out: Ratio TD50/ED50
# [20] = system: Mus musculus; assay: Anticonvulsant activity in CF-1 mouse assessed as protection against maximal electroshock induced seizure at ip administrated upto 4 hrs; type: functional
# [21] = system: Rattus norvegicus; assay: Anticonvulsant activity in Wistar rat assessed as protection against maximal electroshock induced seizure at po administration for 60 mins; type: functional; conditions: 1 h
# [22] = system: Rattus norvegicus; assay: Anticonvulsant activity against maximal electroshock induced seizure in Wistar rat assessed as reduction of time spent in extension phase at 50 mg/kg,po administration; type: functional
# [23] = system: Rattus norvegicus; assay: Anticonvulsant activity in rat assessed as protection against Sc-metrazol induced seizure at po administration; type: functional
# [24] = system: Rattus norvegicus; assay: Anticonvulsant activity in rat assessed as protection against maximal electroshock induced seizure at po administration; type: functional
# [25] = system: Mus musculus; assay: Anticonvulsant activity in mouse assessed as protection against maximal electroshock induced seizure at po administration; type: functional
# [26] = Protective index, ratio of TD50 for toxicity in rat assessed as median toxicity dose at po administration by rotorod test to ED50 for anticonvulsant activity in rat assessed as protection against maximal electroshock induced seizure at po administration; type: organism-based; conditions: in vivo, read-out: Ratio TD50/ED50
# [27] = Protective index, ratio of TD50 for toxicity in CD-1 mouse assessed as median toxicity dose at ip administration by rotorod test to ED50 for anticonvulsant activity in CD-1 mouse assessed as protection against maximal electroshock induced seizure at ip administration; type: organism-based; conditions: in vivo, read-out: Ratio TD50/ED50
# [28] = Protective index, ratio of TD50 for toxicity in CD-1 mouse assessed as median toxicity dose at ip administration by rotorod test to ED50 for anticonvulsant activity in CD-1 mouse assessed as protection against Sc-PTZ induced seizure at ip administration; type: organism-based; conditions: in vivo, read-out: Ratio TD50/ED50
# [29] = system: Mus musculus; assay: Anticonvulsant activity in CD-1 mouse assessed as protection against maximal electroshock induced seizure at ip administrated for 2 hrs; type: functional
# [30] = system: Mus musculus; assay: Anticonvulsant activity in CD-1 mouse assessed as protection against Sc-PTZ induced seizure at ip administrated for 2 hrs; type: functional
# [31] = Protective index, ratio of TD50 for toxicity in Albino mouse assessed as median neurotoxicity dose at ip administration by rotorod test to ED50 for anticonvulsant activity in Albino mouse assessed as protection against maximal electroshock induced seizure at ip administration; type: organism-based; conditions: in vivo, read-out: Ratio TD50/ED50
# [32] = system: Mus musculus; assay: Anticonvulsant activity in Albino mouse assessed as protection against Sc-PTZ induced seizure at ip administration; type: functional
# [33] = system: Mus musculus; assay: Anticonvulsant activity in Albino mouse assessed as protection against maximal electroshock induced seizure at ip administration; type: functional
# [34] = system: Mus musculus; assay: Anticonvulsant activity in Albino mouse brain assessed as increase in GABA level at 30 to 300 mg/kg,ip by spectrophotometric method; type: functional; conditions: dose 30-300 mg/kg
# [35] = Protective index, ratio of TD50 for toxicity in Albino mouse assessed as median neurotoxicity dose at ip administration by rotorod test to ED50 for anticonvulsant activity in Albino mouse assessed as protection against Sc-PTZ induced seizure at ip administration; type: organism-based; conditions: in vivo, read-out: Ratio TD50/ED50
# [36] = system: Mus musculus; assay: Anticonvulsant activity in Albino mouse assessed as protection against maximal electroshock induced seizure at ip administration for 30 mins; type: functional; conditions: 0.5 h
# [37] = Protective index, ratio of TD50 for toxicity in Wistar rat assessed as median toxicity dose at po administration for 4 hrs by rotorod test to ED50 for anticonvulsant activity in Wistar rat assessed as protection against maximal electroshock induced seizure at po administration for 4 hrs; type: organism-based; conditions: in vivo, read-out: Ratio TD50/ED50
# [38] = Protective index, ratio of TD50 for toxicity in Wistar rat assessed as median toxicity dose at po administration for 8 hrs by rotorod test to ED50 for anticonvulsant activity in Wistar rat assessed as protection against maximal electroshock induced seizure at po administration for 8 hrs; type: organism-based; conditions: in vivo, read-out: Ratio TD50/ED50
# [39] = Protective index, ratio of TD50 for toxicity in Wistar rat assessed as median toxicity dose at po administration for 2 hrs by rotorod test to ED50 for anticonvulsant activity in Wistar rat assessed as protection against maximal electroshock induced seizure at po administration for 2 hrs; type: organism-based; conditions: in vivo, read-out: Ratio TD50/ED50
# [40] = system: Rattus norvegicus; assay: Anticonvulsant activity in Wistar rat assessed as protection against maximal electroshock induced seizure at po administration for 4 hrs; type: functional
# [41] = system: Rattus norvegicus; assay: Anticonvulsant activity in Wistar rat assessed as protection against maximal electroshock induced seizure at po administration for 2 hrs; type: functional
# [42] = system: Rattus norvegicus; assay: Anticonvulsant activity in Wistar rat assessed as protection against maximal electroshock induced seizure at po administration for 8 hrs; type: functional
# [43] = system: Rattus norvegicus; assay: Anticonvulsant activity in Sprague-Dawley rat assessed as protection against maximal electroshock induced seizure at ip administration for 0.25 hrs; type: functional
# [44] = system: Rattus norvegicus; assay: Anticonvulsant activity in Sprague-Dawley rat assessed as protection against hippocampal kindling induced seizure at ip administration for 0.25 hrs; type: functional
# [45] = system: Rattus norvegicus; assay: Anticonvulsant activity in Sprague-Dawley rat assessed as protection against maximal electroshock induced seizure at po administration; type: functional
structure (smiles),measurement,setting,value
CCC1(C)CC(=O)NC1=O (stereo unspecified) [ETHOSUXIMIDE],ED50,[1],222 mg/kg
CC(=O)O[C@@H]1Cc2ccccc2N(C(N)=O)c2ccccc21,inhibition,[2],73.2%
same,selectivity ratio,[3],> 91.7
same,Activity,[4],5.9%
same,inhibition,[5],57.7%
same,inhibition,[6],17.9%
same,IC50,[7],141 µM
same,ED50,[8],4.7 mg/kg
O=C1Nc2ccc(Cl)cc2C(c2ccccc2)=NC1/N=N/c1ccc([N+](=O)[O-])cc1 (stereo unspecified),Activity,[9],100%
NC(=O)N1c2ccccc2C=Cc2ccccc21 [CARBAMAZEPINE],inhibition in vivo at 50 mg/kg,[10],0%
same,inhibition in vivo at 50 mg/kg,[11],0%
same,inhibition in vivo at 50 mg/kg,[12],100%
same,ED50,[13],> 100 mg/kg
same,inhibition in vivo at 50 mg/kg,[14],80%
same,mortality at 0.5 h,[15],40%
same,mortality at 0.5 h,[16],90%
NC(=O)N1c2ccccc2CC([N+](=O)[O-])c2ccccc21 (stereo unspecified),IC50,[17],2290 µM
CC1CC(Nc2ccon2)=CC(=O)C1C(=O)OC(C)(C)C (stereo unspecified),TD50 at 4 h,[18],> 500 mg/kg
same,selectivity ratio at 4 h,[19],> 17.8
same,ED50,[20],28.1 mg/kg
COc1ccc(C2CC(c3ccc(Cl)cc3)=Nc3ccccc3N2)cc1 (stereo unspecified),Activity,[21],52%
same,Time,[22],8.5 s
"CC1(C)C(C(=O)NC(N)=O)C1(C)C [2,2,3,3-TETRAMETHYLCYCLOPROPANECARBONYLUREA]",ED50,[23],92 mg/kg
same,ED50,[24],29 mg/kg
same,ED50,[25],90 mg/kg
same,selectivity ratio,[26],18.5
CC1(c2ccccc2)CC(=O)N(CCC(=O)N2CCN(c3ccccc3F)CC2)C1=O (stereo unspecified),selectivity ratio,[27],> 3.83
same,selectivity ratio,[28],> 2.63
same,ED50,[29],78.3 mg/kg
same,ED50,[30],114 mg/kg
CN(C)c1ccc(/C=N/Nc2nnc(-c3ccccc3)nc2Cc2cccc(Cl)c2)cc1,selectivity ratio,[31],8.01
same,ED50,[32],92 mg/kg
same,ED50,[33],54.3 mg/kg
same,Activity,[34],39.7 mg
same,selectivity ratio,[35],4.73
O=C1Nc2ccc(Cl)cc2C(c2ccccc2)=NC1/N=N/c1ccc(F)cc1 (stereo unspecified),Activity,[36],100%
NC(=O)N1c2ccccc2C/C(=N/O)c2ccccc21,selectivity ratio at 4 h,[37],> 100
same,selectivity ratio at 8 h,[38],> 117
same,selectivity ratio at 2 h,[39],> 166
same,ED50,[40],20 mg/kg
same,IC50,[17],418 µM
same,ED50,[41],12 mg/kg
same,ED50,[42],17 mg/kg
CCCC(CCC)C(=O)OCCN(C)C,ED50,[43],73 mg/kg
same,ED50,[44],168 mg/kg
O=C1NC(c2ccccc2)(C2CC2)C(=O)N1CN1CCN(c2ccccc2)CC1 (stereo unspecified),ED50,[45],5.29 mg/kg
